# Laboratory results taken from patent US20070155786A1, “Methods for treating oral aphthous stomatitis and oral mucositis” (priority 2004, published 2007).
# Counter-ions that a name gives are not always drawn.
# Key:
# Assay type in all cases: in vivo, human
# aphtha = assay: Case reports: rinse with quinoline derivative solution followed by chlorhexidine rinse in patients with aphthae
# Text: (§1) Hydroxychloroquine (HCQ) was obtained from Sanofi-Syntelabo, Inc. New York USA, quinine (Q) and quinidine sulfate were obtained from Rakah, Holon, Israel. The compounds were mixed with tap water. Chlorhexidine was obtained from LACER S.A., Barcelona, Spain.
# A person, generally in good health, presented a most painful, distressing major aphtha of approximately 1 cm diameter on the ventro-lateral tongue. They had suffered the presence of such lesions for several years (recurrences of 6 to 8 episodes per year). The current lesion had been present for about one week. During examination 2 lymph nodes were palpated in the floor of mouth, probably due to a secondary infection. They started to apply a rinse with 3.72 mg/cc HCQ solution (for 3 to 5 minutes) followed by a rinse with 0.12% chlorhexidine alcohol free solution (for about 1 minute), 3 times a day. Two days later, the patient was totally free of pain and the size of the aphtha diminished to about 7 mm diameter.
# A person, presented a painful minor aphtha on the ventro-lateral part of the tongue. They reported its appearance about 1 week ago. In the past, frequent episodes of minor aphthae had occurred every 2 months. They started to rinse with 10 ml of quinine sulfate Solution 3 mg/cc (for 3 to 5 minutes) followed by a rinse with 0.12% chlorhexidine alcohol free solution (for about 1 minute), 3 times a day.
# [1] = test system: oral aphthous stomatitis and oral mucositis; assay: General statements on treating oral aphthous stomatitis and oral mucositis in patients
# Text: In experiments carried out with particular preferred compounds of the invention, the pain caused by ulcerative lesions disappeared often within hours, and the ulcers and other symptoms disappeared usually within days. For example, patients with life-long recurrent aphthae problems achieved quick relief of pains caused by aphthae ulcers after rinsing their mouth with aqueous solutions comprising said compounds. The effect is often enhanced when said quinoline derivative is used together with an antiseptic.
# Quinine at levels up to 83 ppm is approved by FDA for use in beverages as a flavoring agent.
# In other preferred embodiment of this invention, oral mucositis is treated by a quinine (Q) salt in solution or suspension, which is used several times a day for rinsing mouth without swallowing, followed by rinsing with chlorhexidine solution. The concentration of Q is preferably about 0.083 mg/ml, and chlorhexidine solution has preferably a concentration from 0.05% to 0.2%. The rinsing with each of the two components is preferably performed 3-5 times a day. Said Q solution may comprise Q dihydrochloride, Q hydrochloride, Q sulfate, and other Q salts. Said Q suspension may, for example, comprise Q sulfate. Stereoisomers of quinine and their salts, such as quinidine sulfate, have been also found active.
# aphtha (canker sores) = assay: Case reports: mouth rinses with a quinoline derivative solution in patients with aphthae
# Text: as §1
# A person, generally in good health, reported the presence of canker sores for several years (periodic recurrences of 3 to 4 episodes per year). […] The patient was seen five days after the appearance of the painful aphtha. They started oral rinses with 10 ml of hydroxychloroquine (HCQ) solution, 3.7 mg/ml, three times a day, each rinse for 3 to 5 min. […] They continued to rinse for about a week. No additional aphthous lesions appeared during 8 weeks of follow-up.
# A person, in otherwise general good health, came with two painful major aphthae, one of 12 mm diameter on the left side of the lower lip mucosa and the second on the right latero-ventral side of the tongue, about 8 mm diameter. They reported the presence of recurrent aphthous lesions since they were […]. During the last year, they continuously suffered from recurrent episodes of major aphthae, with virtually no aphtae-free intervals. Each episode of aphthae usually lasted for 3 to 6 weeks. They started oral rinses with 10 ml of HCQ solution, 3.7 mg/ml, three times a day, each rinse for 3 to 5 min. […] Concomitantly, 2 new lesions of minor aphthae, 3 mm in diameter each, were seen, one on the left side of the upper lip mucosa and the other on the ventro-anterior side of the tongue. […] In total, they rinsed with the HCQ solution for 20 days.
# A child, in otherwise general good health, reported the presence of recurrent aphthous lesions of different sizes for the last 2 years. The last episode had been about 3 months before examination. The lesions had disappeared within 2 weeks after using different conventional treatments. At clinical examination, one aphtha of about 3 mm diameter was found on the lower lip mucosa and another one about 6 mm diameter was found on the upper lip mucosa. Both lesions were painful. They started rinsing with 10 ml of HCQ solution, 2.5 mg/ml, three times a day, each rinse for 3 to 5 min. […] They reported to be free of any pain already after 24 hours from the start of rinsing. […], therefore, was able to eat everything. The patient was advised to continue rinsing with 10 ml of hydroxychloroquine (HCQ) solution, 3.7 mg/ml, three times a day, each rinse for 3 to 5 min for 7 additional days. […] They still continued with the rinses for 5 additional days, as recommended.
# A person reported suffering from recurrent episodes of canker sores for many years, with 2 to 3 episodes per year. The last episode had occurred about 6 months before examination. They were diagnosed with diabetes mellitus, so that use of steroidal modalities for treatment of their aphthous lesions was contraindicated. […] They started rinsing with 10 ml of HCQ solution, 1.2 mg/ml, three times a day, each rinse for 3 to 5 min. After 24 hours from start of rinses they were free of any pain and was able to eat everything. […] They remained aphthae-free for 7 months.
# A person, generally in good health, reports the presence of canker sores since childhood with about 8 to 10 recurrences per year. At clinical examination a minor painful aphtha was present on the mucosa of the lower lip. The ulcer was about 4-5 mm in diameter and was present for 8 days. […] They started to rinse with 10 ml of hydroxychloroquine (HCQ) solution, 1.2 mg/ml, three times a day, each rinse for 3 to 5 min.
# A person presented a painful minor aphtha of about 3 mm in diameter in the right vestibulum of the lower jaw adjacent to the first molar. They reported the presence of pain and inconvenience for 2 days. In the past, they had experienced recurrences of such lesions every 3 to 4 months. They started to rinse with 10 ml of 0.085 mg/ml quinine solution for 3 to 5 minutes, about 5 to 7 times a day. […]
# erosive lichen planus = assay: Case report: rinse and swallow of quinine solution in a patient with erosive lichen planus
# Text: as §1
# A person presented diffuse erosions/ulcerations of the buccal, labial and lingual mucosae that were present for at least 6 months. They complained of pain and difficulty to eat and speak. The erosive/ulcerative lesions were clinically specific for erosive lichen planus. They started to rinse (for 5 to 10 min) and swallow about 10- 20 ml of 0.085 mg/ml quinine solution, 5 to 7 times a day. […] They were able to maintain a stable asymptomatic condition of their lichen planus by means of quinine solution during about 1 year follow-up period.
# [2] = Example 2: HCQ solution 3.7 mg/ml
# [3] = Example 2: HCQ solution 3.7 mg/ml, three times a day
# [4] = Example 3: HCQ solution 2.5 mg/ml, three times a day
# [5] = Example 7: 0.085 mg/ml quinine solution, rinse and swallow
smiles,measurement,setting,value
C=C[C@H]1C[N@@]2CC[C@H]1C[C@H]2[C@H](O)c1ccnc2ccc(OC)cc12 [quinine sulfate],time until pain decreased significantly,"aphtha; Example 9: person, minor aphtha, 10 ml quinine sulfate solution 3 mg/cc followed by 0.12% chlorhexidine rinse, 3 times a day",≤ 24 h
same,time until all the inconvenience disappeared,"aphtha; Example 9: quinine sulfate solution 3 mg/cc followed by 0.12% chlorhexidine rinse, 3 times a day",≤ 48 h
C=C[C@H]1C[N@@]2CC[C@H]1C[C@@H]2[C@@H](O)c1ccnc2ccc(OC)cc12 [quinidine sulfate],activity in treating oral mucositis,[1]; general statement,active
"CCN(CCO)CCCC(C)Nc1ccnc2cc(Cl)ccc12 (centres unmarked) [HCQ, Hydroxychloroquine]",diameter of the aphtha two days later (initially approximately 1 cm),"aphtha; Example 8: 3.72 mg/cc HCQ rinse followed by 0.12% chlorhexidine rinse, 3 times a day",about 7 mm
same,state of the aphtha after 2 additional days of treatment,"aphtha; Example 8: 3.72 mg/cc HCQ rinse followed by 0.12% chlorhexidine rinse, 2 + 2 days",completely disappeared
same,time until totally free of pain,"aphtha; Example 8: person, major aphtha approx. 1 cm, probable secondary infection, 3.72 mg/cc HCQ rinse followed by 0.12% chlorhexidine rinse, 3 times a day",Two
same,follow-up without additional aphthous lesions,"aphtha (canker sores); Example 1: HCQ solution 3.7 mg/ml, rinsed about a week",8 weeks
same,state of the aphtha 24 hours after start of treatment,"aphtha (canker sores); Example 1: minor aphtha, HCQ solution 3.7 mg/ml, three times a day",almost disappeared
same,time after start of treatment until free of any pain,"aphtha (canker sores); Example 1: person, minor aphtha, rinses 10 ml HCQ solution 3.7 mg/ml, three times a day, 3 to 5 min",Twenty-four
same,new minor aphtha (3 mm) on the lip after 4 more days of rinsing,aphtha (canker sores); [2],diminished significantly in its size
same,new minor aphtha (3 mm) on the tongue after 4 more days of rinsing,aphtha (canker sores); [2],disappeared
same,pain from the two new minor aphthous lesions,aphtha (canker sores); [2],did not cause any pain whatsoever
same,follow up with no new aphthous lesions,"aphtha (canker sores); Example 2: HCQ solution 3.7 mg/ml, rinsed 20 days in total",3 months
same,"aphtha of the tongue (about 8 mm), 5 days later",aphtha (canker sores); [3],completely disappeared
same,"major aphtha of the lower lip (12 mm), 5 days later",aphtha (canker sores); [3],decreased in size to about half its original size
same,major aphtha on the lower lip mucosa after 6 additional days,"aphtha (canker sores); Example 2: HCQ solution 3.7 mg/ml, 5 + 6 days, left a pronounced scar",disappeared completely
same,time after start of rinses until pain completely disappeared,"aphtha (canker sores); Example 2: person, two major aphthae, 10 ml HCQ solution 3.7 mg/ml, three times a day, 3 to 5 min",24 h
same,diameter of aphtha on the lower lip after 5 days (initially about 3 mm),aphtha (canker sores); [4],about 1 mm
same,time from start of rinsing until free of any pain,aphtha (canker sores); [4],24 h
same,follow up after cessation of rinses without new aphthae,aphtha (canker sores); Example 3: HCQ solution 2.5 then 3.7 mg/ml,5 weeks
same,time until aphtha on the lower lip disappeared completely after continuing with 3.7 mg/ml,"aphtha (canker sores); Example 3: after 5 days at 2.5 mg/ml, HCQ solution 3.7 mg/ml three times a day",≤ 2 days
same,lesion on upper lip (about 6 mm) after 5 days,"aphtha (canker sores); Example 3: child, 10 ml HCQ solution 2.5 mg/ml, three times a day, 3 to 5 min",almost disappeared
same,aphthae-free period,aphtha (canker sores); Example 4: HCQ solution 1.2 mg/ml,7 months
same,state of the aphtha after 7 days of rinsing,"aphtha (canker sores); Example 4: HCQ solution 1.2 mg/ml, three times a day",almost disappeared
same,time from start of rinses until free of any pain,"aphtha (canker sores); Example 4: person, diabetes mellitus, major aphthous lesion about 8 mm, 10 ml HCQ solution 1.2 mg/ml, three times a day",24 h
same,follow up with no new aphthae,aphtha (canker sores); Example 5: HCQ solution 1.2 mg/ml,4 months
same,time until aphtha completely disappeared,"aphtha (canker sores); Example 5: HCQ solution 1.2 mg/ml, three times a day",three
same,time of rinses until no pain,"aphtha (canker sores); Example 5: person, minor aphtha 4-5 mm, 10 ml HCQ solution 1.2 mg/ml, three times a day",one
C=C[C@H]1C[N@@]2CC[C@H]1C[C@H]2[C@H](O)c1ccnc2ccc(OC)cc12 [quinine],time until ulcer healed completely,"aphtha (canker sores); Example 6: 0.085 mg/ml quinine solution, 5 to 7 times a day",≤ 4 days
same,time until pain and inconvenience disappeared,"aphtha (canker sores); Example 6: person, minor aphtha about 3 mm, 10 ml 0.085 mg/ml quinine solution, 3 to 5 minutes, 5 to 7 times a day",2 days
same,follow-up with no further recurrences,aphtha (canker sores); Example 10: 0.085 mg/ml quinine solution,about 6 months
same,time until disappearance of the aphtha,"aphtha (canker sores); Example 10: 0.085 mg/ml quinine solution, rinse and swallow",about 4 days
same,time until free of any symptoms,"aphtha (canker sores); Example 10: person, minor aphtha about 4 mm, 10 ml 0.085 mg/ml quinine solution, about 5 times per day, rinse 3 to 5 min and swallow",≤ 24 h
same,outcome in patients with major aphtha accompanied by a secondary infection,"[1]; mouth rinsing with 0.083 mg/ml of quinine, and optionally chlorhexidine, several minutes, several times a day",relief of pains and healing
same,erosive/ulcerative lesions after about 4 weeks,erosive lichen planus; [5],marked healing
same,symptoms of the lesions after about 4 weeks,erosive lichen planus; [5],completely asymptomatic
same,follow-up period with stable asymptomatic condition of lichen planus,erosive lichen planus; Example 7: maintained by quinine solution,about 1 year
same,pain and masticatory function after 3 days,"erosive lichen planus; Example 7: person, rinse (5 to 10 min) and swallow 10-20 ml of 0.085 mg/ml quinine solution, 5 to 7 times a day",significant amelioration
